The assay deals with SW872. As to the kind of experiment: relative viability vs DMSO control (72 h) (fraction); higher = more viable cells. In outline:
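Sarcoma cell lines were seeded in 384-well plates at densities chosen for 80–90% confluence, then 24 h later given 2.5 µl of serially diluted compound drawn from source plates spanning 10 mM to 0.0002 mM. They were held 72 h at 37 °C, 5% CO2, with 0.1% DMSO vehicle and a 5 µM positive control included. Relative viability was read with ATPLite as percent growth and averaged over up to triplicate wells. Rescaling placed full at 1 and none at 0.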

Counter-ions that a name gives are not always drawn. ± gives the standard deviation of the averaged measurements.

`CCCS(=O)(=O)Nc1ccc(F)c(C(=O)c2c[nH]c3ncc(-c4ccc(Cl)cc4)cc23)c1F` [Vemurafenib] yielded a relative viability (0.00017 µM) of 1.05 ± 0.096; a relative viability (0.00051 µM) of 1.07 ± 0.099; a relative viability (0.00152 µM) of 1.08 ± 0.074; a relative viability (0.00457 µM) of 1.07 ± 0.067; a relative viability (0.01372 µM) of 1.07 ± 0.08; a relative viability (0.04115 µM) of 1.02 ± 0.033. Further, the relative viability runs as follows: (0.1235 µM) 0.863 ± 0.059; (0.3704 µM) 0.706 ± 0.063; (1.111 µM) 0.642 ± 0.058; (3.333 µM) 0.528 ± 0.034; (10 µM) 0.342 ± 0.015.

For the molecule `Cc1ccc(NC(=O)c2ccc(CN3CCN(C)CC3)cc2)cc1Nc1nc(-c2cccnc2)cs1` [Masitinib], the relative viability is, setting by setting: (0.00017 µM) 1.03 ± 0.044; (0.00051 µM) 1.06 ± 0.028; (0.00152 µM) 1.04 ± 0.029; (0.00457 µM) 1.03 ± 0.041; (0.01372 µM) 1.04 ± 0.038; (0.04115 µM) 1.06 ± 0.03. In addition, the relative viability runs as follows: (0.1235 µM) 1.006 ± 0.006; (0.3704 µM) 0.979 ± 0.021; (1.111 µM) 0.798 ± 0.015; (3.333 µM) 0.519 ± 0.0078; (10 µM) 0.127 ± 0.012.

For `Cc1cnc(Nc2ccc(OCCN3CCCC3)cc2)nc1Nc1cccc(S(=O)(=O)NC(C)(C)C)c1` [Fedratinib], the relative viability by setting is: (0.00017 µM) 1.04 ± 0.013; (0.00051 µM) 1.06 ± 0.027; (0.00152 µM) 1.05 ± 0.034; (0.00457 µM) 1.01 ± 0.073; (0.01372 µM) 1.04 ± 0.044; (0.04115 µM) 1.03 ± 0.075. Also, the relative viability runs as follows: (0.1235 µM) 0.942 ± 0.064; (0.3704 µM) 0.699 ± 0.049; (1.111 µM) 0.408 ± 0.024; (3.333 µM) 0.16 ± 0.018; (10 µM) 0.00193 ± 0.0011.

Turning to `C[C@@H](c1ccc2nccn2c1)n1nnc2ncc(-c3cnn(C)c3)nc21` [Volitinib], the relative viability is, setting by setting: (0.00017 µM) 1.06 ± 0.029; (0.00051 µM) 1.06 ± 0.034; (0.00152 µM) 1.08 ± 0.027; (0.00457 µM) 1.08 ± 0.051; (0.01372 µM) 1.06 ± 0.045; (0.04115 µM) 1.089 ± 0.0097. Besides, the relative viability reads like this: (0.1235 µM) 1.07 ± 0.041; (0.3704 µM) 1.06 ± 0.043; (1.111 µM) 1.1 ± 0.026; (3.333 µM) 1.05 ± 0.025; (10 µM) 1.05 ± 0.044.

On to `COc1cccc2c1C(=O)c1c(O)c3c(c(O)c1C2=O)C[C@@](O)(C(=O)CO)C[C@@H]3O[C@H]1C[C@H](N)[C@H](O)[C@H](C)O1` [Doxorubicin Hydrochloride], for which the relative viability runs as follows: (0.00017 µM) 1.04 ± 0.021; (0.00051 µM) 1.05 ± 0.046; (0.00152 µM) 1.04 ± 0.031; (0.00457 µM) 1.08 ± 0.036; (0.01372 µM) 1.06 ± 0.018; (0.04115 µM) 0.961 ± 0.024. The relative viability turned out to be 0.527 ± 0.051 (0.1235 µM); 0.203 ± 0.011 (0.3704 µM); 0.172 ± 0.014 (1.111 µM); 0.213 ± 0.005 (3.333 µM); 0.175 ± 0.0045 (10 µM).

As for `CCN1CCN(Cc2ccc(Nc3ncc(F)c(-c4cc(F)c5nc(C)n(C(C)C)c5c4)n3)nc2)CC1` [Abemaciclib], the relative viability was 1.01 ± 0.08 (0.00017 µM); 1.03 ± 0.038 (0.00051 µM); 1.01 ± 0.044 (0.00152 µM); 1.02 ± 0.046 (0.00457 µM); 1.01 ± 0.052 (0.01372 µM); 0.95 ± 0.095 (0.04115 µM). In addition, the relative viability is, setting by setting: (0.1235 µM) 0.874 ± 0.037; (0.3704 µM) 0.742 ± 0.025; (1.111 µM) 0.678 ± 0.032; (3.333 µM) 0.668 ± 0.018; (10 µM) 0.709 ± 0.04.

`C=CC(=O)N1CCC([C@@H]2CCNc3c(C(N)=O)c(-c4ccc(Oc5ccccc5)cc4)nn32)CC1` [Zanubrutinib]: the relative viability stood at 1.01 ± 0.032 (0.00017 µM); 1.03 ± 0.028 (0.00051 µM); 0.996 ± 0.038 (0.00152 µM); 1.01 ± 0.029 (0.00457 µM); 0.9666 ± 0.0096 (0.01372 µM); 0.954 ± 0.046 (0.04115 µM). Besides, the relative viability reads like this: (0.1235 µM) 0.883 ± 0.066; (0.3704 µM) 0.923 ± 0.026; (1.111 µM) 0.912 ± 0.034; (3.333 µM) 0.929 ± 0.029; (10 µM) 0.844 ± 0.022.

Take `COc1cc2/c(=N/c3ccc(Br)cc3F)nc[nH]c2cc1OCC1CCN(C)CC1` [Vandetanib]: the relative viability came out at 1.02 ± 0.046 (0.00017 µM); 1.01 ± 0.052 (0.00051 µM); 1 ± 0.036 (0.00152 µM); 1.02 ± 0.041 (0.00457 µM); 1.03 ± 0.02 (0.01372 µM); 0.987 ± 0.051 (0.04115 µM). The same molecule came in with a relative viability (0.1235 µM) of 0.964 ± 0.0059; a relative viability (0.3704 µM) of 0.91 ± 0.025; a relative viability (1.111 µM) of 0.802 ± 0.03; a relative viability (3.333 µM) of 0.5804 ± 0.0048; a relative viability (10 µM) of 0.00997 ± 0.0034.

On to `C[C@@H]1COCCN1c1cc(-c2ccnn2C)c2ccnc(-c3ccn[nH]3)c2n1`, for which the relative viability is, setting by setting: (0.00017 µM) 0.994 ± 0.054; (0.00051 µM) 1.01 ± 0.018; (0.00152 µM) 1.01 ± 0.014; (0.00457 µM) 1.04 ± 0.037; (0.01372 µM) 0.953 ± 0.043; (0.04115 µM) 0.867 ± 0.013. Also, the relative viability is, setting by setting: (0.1235 µM) 0.714 ± 0.047; (0.3704 µM) 0.452 ± 0.043; (1.111 µM) 0.282 ± 0.012; (3.333 µM) 0.229 ± 0.011; (10 µM) 0.197 ± 0.0092.

`C[C@]1(O)C[C@@H](c2nc(-c3ccc4ccc(-c5ccccc5)nc4c3)c3c(N)nccn32)C1` [Linsitinib] registered a relative viability (0.00017 µM) of 1.04 ± 0.037; a relative viability (0.00051 µM) of 1.05 ± 0.014; a relative viability (0.00152 µM) of 1.03 ± 0.041; a relative viability (0.00457 µM) of 1 ± 0.043; a relative viability (0.01372 µM) of 0.995 ± 0.048; a relative viability (0.04115 µM) of 0.973 ± 0.027. Moreover, the relative viability (0.1235 µM) was determined as 0.9745 ± 0.0092; the relative viability (0.3704 µM) amounted to 0.9267 ± 0.0035; the relative viability (1.111 µM) amounted to 0.914 ± 0.027; the relative viability (3.333 µM) was 0.821 ± 0.028; the relative viability (10 µM) worked out at 0.615 ± 0.018.
